Test results from ChEMBL document CHEMBL1201862, “PubChem BioAssay data set” (2004).
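Following 48 hours of exposure in 96-well plates, responses at five concentrations were used to interpolate endpoints linearly. The concentration for 50% growth inhibition is given as GI50.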 Calls of active or inactive are those of the source. No stated cut-off is given here; in the data, active = GI50 up to about 1.1 µM and inactive = higher.

Assays:
Experiment in all cases: NCI anticancer screen, dose series, 48 h
M14 = test system: M14
NCI-H226 = test system: NCI-H226
COLO 205 = test system: COLO 205
SNB-19 = test system: SNB-19
SK-MEL-5 = test system: SK-MEL-5
SF-295 = test system: SF-295
A498 = test system: A498
ACHN = test system: ACHN
BT-549 = test system: BT-549
Malme-3M = test system: Malme-3M
MOLT-4 = test system: MOLT-4
HOP-92 = test system: HOP-92
OVCAR-8 = test system: OVCAR-8
RXF 393 = test system: RXF 393
NCI/ADR-RES = test system: NCI/ADR-RES
PC-3 = test system: PC-3
NCI-H522 = test system: NCI-H522
UO-31 = test system: UO-31
LOX IMVI = test system: LOX IMVI
EKVX = test system: EKVX
T47D = test system: T47D
MDA-MB-435 = test system: MDA-MB-435
OVCAR-5 = test system: OVCAR-5
MDA-MB-231 = test system: MDA-MB-231
786-0 = test system: 786-0
KM12 = test system: KM12
SF-268 = test system: SF-268
DU-145 = test system: DU-145
SN12C = test system: SN12C
SF-539 = test system: SF-539
HCC 2998 = test system: HCC 2998
IGROV-1 = test system: IGROV-1
CAKI-1 = test system: CAKI-1
OVCAR-3 = test system: OVCAR-3
UACC-62 = test system: UACC-62
HCT-116 = test system: HCT-116
MDA-N = test system: MDA-N
U-251 = test system: U-251
MCF7 = test system: MCF7
HOP-62 = test system: HOP-62
SK-OV-3 = test system: SK-OV-3
TK-10 = test system: TK-10
OVCAR-4 = test system: OVCAR-4
HCT-15 = test system: HCT-15
SR = test system: SR
HT-29 = test system: HT-29
SK-MEL-28 = test system: SK-MEL-28
UACC-257 = test system: UACC-257
SNB-75 = test system: SNB-75
HL-60 = test system: HL-60
SK-MEL-2 = test system: SK-MEL-2
NCI-H23 = test system: NCI-H23
NCI-H460 = test system: NCI-H460
SW-620 = test system: SW-620
A549 = test system: A549
K562 = test system: K562
CCRF-CEM = test system: CCRF-CEM
Hs-578T = test system: Hs-578T
RPMI-8226 = test system: RPMI-8226

Measured: GI50

Cc1c(O)c(OC2OC(CO)C(O)C(O)C2O)cc2c1C=C[C@@H]1[C@@]2(C)C(=O)C[C@]2(C)[C@@H]([C@@](C)(O)C(=O)CCC(C)(C)O)[C@H](O)C[C@@]12C (stereo partly specified)
25.9 µM: HCT-15
inactive: M14 26.4 µM | NCI-H226 23.3 µM | COLO 205 35.5 µM | SNB-19 23.2 µM | SK-MEL-5 23 µM | SF-295 17.1 µM | A498 19.5 µM | ACHN 19.6 µM | BT-549 26.9 µM | Malme-3M 24 µM | MOLT-4 19.7 µM | HOP-92 18.4 µM | OVCAR-8 33.3 µM | RXF 393 18.6 µM | NCI/ADR-RES 25.5 µM | PC-3 21.6 µM | NCI-H522 24.6 µM | UO-31 20.2 µM | LOX IMVI 22.6 µM | EKVX 28.6 µM | T47D 18.7 µM | MDA-MB-435 27.1 µM | OVCAR-5 25.6 µM | MDA-MB-231 21.1 µM | 786-0 25.2 µM | KM12 25.4 µM | SF-268 28.7 µM | DU-145 23.7 µM | SN12C 19.8 µM | SF-539 18.1 µM | HCC 2998 20.5 µM | IGROV-1 19.7 µM | CAKI-1 20 µM | OVCAR-3 22.6 µM | UACC-62 18.1 µM | HCT-116 18.9 µM | MDA-N 27.9 µM | U-251 20.7 µM | MCF7 33.6 µM | HOP-62 31.7 µM | SK-OV-3 15.7 µM | TK-10 18.1 µM | OVCAR-4 25.4 µM | SR 35.9 µM | HT-29 28.8 µM | SK-MEL-28 21.1 µM | UACC-257 20.9 µM | SNB-75 25.1 µM | HL-60 41.5 µM | SK-MEL-2 26.2 µM | NCI-H23 17.1 µM | NCI-H460 20.2 µM | SW-620 29 µM | A549 26.7 µM | K562 34.1 µM | CCRF-CEM 37.3 µM

O=C(O)C(C(C(=O)O)P(=O)(O)O)P(=O)(O)O (stereo unspecified)
> 100 µM: HCT-15
inactive: M14 > 100 µM | NCI-H226 > 100 µM | COLO 205 > 100 µM | SNB-19 > 100 µM | SK-MEL-5 > 100 µM | A498 > 100 µM | ACHN > 100 µM | Hs-578T > 100 µM | BT-549 > 100 µM | Malme-3M > 100 µM | MOLT-4 > 100 µM | HOP-92 86.1 µM | OVCAR-8 > 100 µM | PC-3 > 100 µM | UO-31 > 100 µM | LOX IMVI > 100 µM | RPMI-8226 > 100 µM | EKVX > 100 µM | MDA-MB-435 > 100 µM | OVCAR-5 > 100 µM | 786-0 > 100 µM | KM12 > 100 µM | SF-268 > 100 µM | DU-145 > 100 µM | SF-539 > 100 µM | HCC 2998 > 100 µM | IGROV-1 > 100 µM | OVCAR-3 > 100 µM | UACC-62 > 100 µM | HCT-116 > 100 µM | MDA-N > 100 µM | U-251 > 100 µM | MCF7 > 100 µM | SK-OV-3 > 100 µM | TK-10 > 100 µM | OVCAR-4 > 100 µM | SR > 100 µM | HT-29 > 100 µM | SK-MEL-28 > 100 µM | SNB-75 > 100 µM | HL-60 > 100 µM | SK-MEL-2 > 100 µM | SW-620 > 100 µM | A549 > 100 µM | K562 > 100 µM | CCRF-CEM > 100 µM

COc1ccc(-c2c3c(n(C4OC(COC(C)=O)C(OC(C)=O)C(OC(C)=O)C4OC(C)=O)c(=S)c2C#N)CCC3)cc1 (stereo unspecified)
inactive: M14 > 100 µM | COLO 205 86.9 µM | SNB-19 > 100 µM | SK-MEL-5 38.8 µM | SF-295 > 100 µM | ACHN > 100 µM | Hs-578T > 100 µM | BT-549 96.4 µM | Malme-3M > 100 µM | MOLT-4 > 100 µM | HOP-92 6.82 µM | RXF 393 92.3 µM | NCI/ADR-RES > 100 µM | PC-3 > 100 µM | UO-31 81.3 µM | LOX IMVI > 100 µM | RPMI-8226 > 100 µM | MDA-MB-435 > 100 µM | OVCAR-5 > 100 µM | 786-0 > 100 µM | KM12 > 100 µM | SF-268 > 100 µM | DU-145 > 100 µM | SN12C 71.4 µM | SF-539 > 100 µM | HCC 2998 > 100 µM | IGROV-1 > 100 µM | CAKI-1 > 100 µM | OVCAR-3 > 100 µM | UACC-62 > 100 µM | HCT-116 > 100 µM | MDA-N > 100 µM | U-251 > 100 µM | MCF7 > 100 µM | HOP-62 > 100 µM | SK-OV-3 > 100 µM | TK-10 > 100 µM | OVCAR-4 > 100 µM | SR > 100 µM | HT-29 > 100 µM | SK-MEL-28 > 100 µM | UACC-257 > 100 µM | SNB-75 > 100 µM | HL-60 > 100 µM | SK-MEL-2 > 100 µM | NCI-H23 > 100 µM | NCI-H460 > 100 µM | SW-620 > 100 µM | A549 > 100 µM | K562 > 100 µM | CCRF-CEM > 100 µM
> 100 µM: HCT-15
